In ChEMBL document CHEMBL1795322, “Inhibition of the cellular function of perforin by 1-amino-2,4-dicyanopyrido[1,2-a]benzimidazoles” (Bioorg Med Chem, 2011):

What was measured:
[1] = molecular target: T1, Perforin-1 (Homo sapiens) (UniProt P14222); test: Inhibition of perforin released from human KHYG-1 NK cells assessed as inhibition of perforin mediated lysis of human K562 cells at 20 uM in presence of 0.1% BSA by [51Cr] release assay; type: cell-based
T1 sequence (whole entry): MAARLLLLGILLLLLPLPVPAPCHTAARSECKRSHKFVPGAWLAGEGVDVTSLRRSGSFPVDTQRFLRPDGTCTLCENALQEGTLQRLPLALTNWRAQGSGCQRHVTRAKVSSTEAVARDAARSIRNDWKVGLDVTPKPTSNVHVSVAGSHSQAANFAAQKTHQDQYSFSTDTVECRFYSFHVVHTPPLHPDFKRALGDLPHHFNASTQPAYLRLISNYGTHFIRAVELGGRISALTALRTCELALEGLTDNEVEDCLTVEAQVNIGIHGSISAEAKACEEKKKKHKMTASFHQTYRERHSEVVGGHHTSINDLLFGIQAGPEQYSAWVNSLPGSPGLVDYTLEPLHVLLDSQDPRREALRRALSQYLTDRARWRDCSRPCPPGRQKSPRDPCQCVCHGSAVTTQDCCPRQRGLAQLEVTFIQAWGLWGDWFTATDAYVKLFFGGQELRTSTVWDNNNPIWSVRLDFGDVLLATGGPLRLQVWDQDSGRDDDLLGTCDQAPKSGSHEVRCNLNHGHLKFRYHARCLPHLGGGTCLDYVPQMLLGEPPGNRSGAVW

[2] = Toxicity against human KHYG-1 NK cells assessed as cell viability at 20 uM incubated for 24 hrs at 37 degC y Trypan blue exclusion method; type: cell-based; details: read-out: Activity
[3] = molecular target: T1, Perforin-1 (Homo sapiens); test: Inhibition of perforin released from human KHYG-1 NK cells assessed as inhibition of perforin mediated lysis of human K562 cells at 20 uM in presence of 10% mouse serum by [51Cr] release assay; type: cell-based
[4] = Inhibition of recombinant perforin mediated lysis of human Jurkat cells pre-incubated for 30 mins with perforin followed by incubation with Jurkat cells at 37 degC for 4 hrs in presence of 0.1% BSA by [51Cr] release assay

| SMILES | inhibition [1] | inhibition [3] | IC50 [4] | viability at 24 h, 20 µM [2] |
| --- | --- | --- | --- | --- |
| N#Cc1c(-c2ccc(OCCO)cc2)c(C#N)c2nc3ccccc3n2c1N | 15% | 16% | – | 85% |
| Cc1cc2nc3c(C#N)c(-c4ccc(OCC(N)=O)cc4)c(C#N)c(N)n3c2cc1C | 38% | 5% | – | 62% |
| N#Cc1c(-c2ccc(C(=O)NCCN3CCOCC3)cc2)c(C#N)c2nc3ccccc3n2c1N | 1% | 5% | – | 85% |
| Cc1cccc2c1nc1c(C#N)c(-c3ccc(OCC(N)=O)cc3)c(C#N)c(N)n12 | 10% | 8% | – | 88% |
| N#Cc1c(-c2ccc(C(=O)NCCO)cc2)c(C#N)c2nc3ccccc3n2c1N | 4% | 12% | – | 89% |
| N#Cc1c(-c2ccc(OCC(=O)NCCO)cc2)c(C#N)c2nc3ccccc3n2c1N | 0% | 6% | – | 92% |
| N#Cc1c(-c2ccc(OCC(N)=O)cc2)c(C#N)c2nc3ccccc3n2c1N | 18% | 2% | – | 86% |
| N#Cc1c(-c2ccc(C(=O)NCC(O)CO)cc2)c(C#N)c2nc3ccccc3n2c1N (configuration not stated) | 0% | 0% | – | 84% |
| N#Cc1c(-c2ccc(C(=O)NCCc3ccncc3)cc2)c(C#N)c2nc3ccccc3n2c1N | 15% | 20% | – | 62% |
| CC(C)NC(=O)COc1ccc(-c2c(C#N)c(N)n3c(nc4ccccc43)c2C#N)cc1 | 52% | 22% | – | 70% |
| Cc1ccc2c(nc3c(C#N)c(-c4ccc(OCC(N)=O)cc4)c(C#N)c(N)n32)c1C | 36% | 7% | – | 60% |
| CCCNC(=O)COc1ccc(-c2c(C#N)c(N)n3c(nc4ccccc43)c2C#N)cc1 | 41% | 22% | – | 90% |

More lines, main results first:

| inhibition [1] | inhibition [3] | IC50 [4] | SMILES | viability at 24 h, 20 µM [2] |
| --- | --- | --- | --- | --- |
| 0% | 0% | – | CC(O)CNC(=O)c1ccc(-c2c(C#N)c(N)n3c(nc4ccccc43)c2C#N)cc1 (configuration not stated) | 68% |
| 34% | 25% | – | CN(C)C(=O)COc1ccc(-c2c(C#N)c(N)n3c(nc4ccccc43)c2C#N)cc1 | 78% |
| 19% | 12% | – | CCNC(=O)c1ccc(-c2c(C#N)c(N)n3c(nc4ccccc43)c2C#N)cc1 | 53% |
| 41% | 42% | – | CNC(=O)COc1ccc(-c2c(C#N)c(N)n3c(nc4ccccc43)c2C#N)cc1 | 84% |
| 0% | 7% | – | N#Cc1c(-c2ccc(C(=O)NCCCO)cc2)c(C#N)c2nc3ccccc3n2c1N | 86% |
| 49% | 64% | – | CN(C)C(=O)CCc1ccc(-c2c(C#N)c(N)n3c(nc4ccccc43)c2C#N)cc1 | 96% |
| 60% | 6% | 970 nM | Cc1cc2c(c(=S)[nH]1)C(=O)O/C2=C\c1csc2ccccc12 | 88% |
| 0% | 11% | – | CCNC(=O)COc1ccc(-c2c(C#N)c(N)n3c(nc4ccccc43)c2C#N)cc1 | 77% |
| 9% | 12% | – | CNC(=O)c1ccc(-c2c(C#N)c(N)n3c(nc4ccccc43)c2C#N)cc1 | 84% |
| 7% | 6% | – | N#Cc1c(-c2ccc(C(N)=O)cc2)c(C#N)c2nc3ccccc3n2c1N | 79% |
